Data as given in BindingDB's records for doi:10.1016/S0960-894X(01)80381-4 (n/a, 1994).

Test: Inhibition of 10 uM ADP-induced human gel filtered platelet aggregation with 0.1 mg/mL human fibrinogen

Row | SMILES | IC50
1 | O=C(O)CCN1Cc2ccc(C(=O)NCCC3CCNCC3)cc2C1=O [3-[1-Oxo-6-(2-piperidin-4-yl-ethylcarbamoyl)-1,3-dihydro-isoindol-2-yl]-propionic acid] | 10 mM
2 | O=C(O)CCNC(=O)c1cccc(C(=O)NCC2CCNCC2)c1 [3-{3-[(Piperidin-4-ylmethyl)-carbamoyl]-benzoylamino}-propionic acid] | 0.33 mM
3 | O=C(O)CCNC(=O)c1ccc2c(c1)C(=O)N(CCC1CCNCC1)C2 [3-{[3-Oxo-2-(2-piperidin-4-yl-ethyl)-2,3-dihydro-1H-isoindole-5-carbonyl]-amino}-propionic acid(L-709780)] | 0.025 mM
4 | O=C(O)CCNC(=O)c1ccc2c(c1)C(=O)C(CCC1CCNCC1)C2 (centres undefined) [3-{[3-Oxo-2-(2-piperidin-4-yl-ethyl)-indane-5-carbonyl]-amino}-propionic acid] | 2.3 mM
